Each molecule was assayed on methicillin-Sensitive Staphylococcus aureus (MSSA) (assay: Planktonic (free-living) antibacterial assay, broth microdilution MIC vs. MSSA). Conditions: minimal concentration at which bacterial growth is completely inhibited, 37° C., 24 to 48 hours, OD 600 nm.
Type: cell-based
Procedure: Test C. Planktonic (Free-Living) Antibacterial Assay.
Planktonic antibacterial activity can be determined using a broth microdilution assay in which log-phase bacteria are grown at 37° C. in appropriate medium containing two-fold serial dilutions of a compound to yield a final concentration ranging from […]. For determination of minimal inhibitory concentration (MIC) values, bacterial growth is monitored after 24 to 48 hours by measuring optical density at 600 nm.
The minimal inhibitory concentration against methicillin-Sensitive Staphylococcus aureus (MSSA) for each of the following representative compounds of the invention was determined to be less than 32 μg/ml.

MIC, ≤ 32 mg/L:
COc1cc2cc(-c3cccc(-c4ccccc4)c3)[n+](C)c(C)c2cc1OC.[I-] [Example 4]
COc1cc2cc3c4cc(-c5ccccc5)c(OC)cc4cc[n+]3cc2cc1OC.[Cl-] [Example 35]
COc1cc2cc[n+]3cc4c(OC)c(OC)c(OC)cc4cc3c2cc1-c1ccc(-c2ccccc2)cc1.[Cl-] [Example 19]
C[n+]1cc2ccccc2cc1-c1cc(-c2ccccc2)cc(-c2ccccc2)c1.[I-] [Example 6]
COc1cc2c[n+]3ccc4c(OC)c(OC)ccc4c3cc2c(-c2ccc(-c3ccccc3)cc2)c1OC.[Cl-] [Example 21]
COc1cc2c(C)[n+]3ccc4c(OC)c(OC)ccc4c3cc2c(-c2ccc(-c3ccccc3)cc2)c1OC [Example 20]
COc1cc2cc(-c3cccc(-c4ccc(-c5ccccc5)cc4)c3)[n+](C)c(C)c2cc1OC.[I-] [Example 16]
COc1cc2cc(-c3cc(-c4ccccc4)cc(-c4ccccc4)c3)[n+](C)c(C)c2cc1OC.[I-] [Example 8]
COc1cc2cc3c4cc(-c5ccc(-c6ccccc6)cc5)c(OC)c(OC)c4cc[n+]3c(C)c2cc1OC [Example 17]
COc1cc2cc3c4cc(-c5cccc(N(C)C)c5)c(OC)cc4cc[n+]3c(C)c2cc1OC [Example 27]
COc1cc2cc3c4cc(-c5ccc(C)cc5)c(OC)cc4cc[n+]3c(C)c2cc1OC [Example 30]
C[n+]1cc2ccccc2cc1-c1cccc(-c2ccccc2)c1.[I-] [Example 2]
COc1cc2cc3c4cc(-c5ccc(C)cc5)c(OC)cc4cc[n+]3cc2cc1OC.[Cl-] [Example 31]

— patent US9227966B2, “Antimicrobial agents” (Rutgers, The State University of New Jersey, priority 2010, dated 2016)
